From US7816134B2, “Method of extensive culture of antigen-specific cytotoxic T cells” (Takara Bio Inc., priority 2000, dated 2010)
Like-named read-outs stand apart in the source and are kept apart here.

Key:
[1] = system: HLA-A2.1-having EBV transformed B-cells (221A2.1); assay: Specific cytotoxic activity of MART1-specific CTLs after expansion, EBV transformed B-cell target; assay type: cell-based, human; details: for Cytotoxic Activity (%): target cells 221A2.1, sample induction +, expansion +, peptide addition +
Description: (§2) In the evaluation, as target cells, there were used HLA-A2.1-having EBV transformed B-cells which were cultured in the absence of the epitope peptide (name of cells: 221A2.1); a cancer cell line-having HIA-A2.1 which was cultured for two nights in the presence of 100 U/ml IFN-γ (name of cells: 624mel; MART1 expressed cells having HLA-A2.1); or a cancer cell line not having HLA-A2.1 (name of cells: 888mel; MART1 expressed cells not having HLA-A2.1).
(§3) Stimulation by a peptide was not added at all during this culture. On the first day of the initiation of the culture, IL-2 was added so as to have a final concentration of 120 U/ml. […] However, in the group with no addition of the sample, the sample was not added even during medium exchange.

[2] = system: 888mel; MART1 expressed cells not having HLA-A2.1
Description: as §2, §3

[3] = system: HLA-A2.1-having EBV transformed B-cells (221A2.1); assay: Specific cytotoxic activity of MAGE3-specific CTLs after expansion; assay type: cell-based, human; details: for Cytotoxic Activity (%): sample induction +, expansion +
Description: (§1) CTLs prepared in item (1) of Example 2-1 were washed with 5HRPMI, and then made into a suspension having a concentration of 5×10^4 cells/ml. On the other hand, allogenic PBMCs not having HLA-A24 and HLA-A2.1 which were collected in the same manner as in item (1) of Example 1-1 were subjected to X-ray irradiation (3300R), and the cells were washed with the medium and then made into a suspension having a concentration of 5×10^6 cells/ml. These CTLs (2.5×10^4 cells) and allogenic PBMCs (1.25×10^7 cells) were suspended in 10 ml of 5HRPMI, and anti-CD3 antibody (manufactured by Janssen-Kyowa) was further added thereto so as to give a final concentration of 50 ng/ml. The mixture was placed into a flask of 12.5 cm^2 (manufactured by Falcon), and the cells were cultured in a wet-type CO2 incubator at 37° C. for 14 days. […] The expansion ratio (× times ratio) was calculated by dividing the cell count after the expansion by the cell count before the expansion.

[4] = system: anti-influenza virus memory CTLs (FluMPA2.1); assay type: cell-based, human
[5] = system: anti-tumor-associated antigen(MAGE3)-specific CTLs; assay: Expansion ratio of MAGE3-specific CTLs; assay type: cell-based, human; details: sample 10 μg/ml: induction +, 14 days
Description: as §1

[6] = system: HLA-A2.1-having EBV transformed B-cells (221A2.1); details: for Cytotoxic Activity (%) E/T Ratio 10: Example 3-2, REM method, FluMPA2.1, sample 10 μg/ml during CTL induction +, during expansion +, addition of EBV-B cells +
[7] = system: anti-tumor-associated antigen(MART1)-specific CTLs; assay: Expansion ratio of MART1-specific CTLs; assay type: cell-based, human; details: sample 10 μg/ml: induction +, 14 days
Description: as §1

[8] = system: anti-influenza virus memory CTLs (FluMPA2.1); assay: Expansion ratio of anti-influenza virus memory CTLs (FluMPA2.1), REM method (EBV-B cells added); assay type: cell-based, human; details: Example 3-2, sample 10 μg/ml during CTL induction +, addition of EBV-B cells +
[9] = system: HLA-A2.1-having EBV transformed B-cells (221A2.1); details: for Cytotoxic Activity (%) E/T Ratio 10: Example 3-2, FluMPA2.1, sample 10 μg/ml during CTL induction +, during expansion +, addition of EBV-B cells −; for Cytotoxic Activity (%): sample induction +
[10] = system: HLA-A2.1-having EBV transformed B-cells (221A2.1); assay: Cytotoxic activity of anti-tumor-associated antigen(MAGE3)-specific CTLs on the thirty-fifth day after the initiation of induction; details: 10 μg/ml

Q: Which results are given for hyaluronic acid?
A: cytotoxic activity after expansion for 14 days (in words) ([1]; MART1-specific CTLs, sample 10 μg/ml during CTL induction and during expansion): specific, high cytotoxic activity; Cytotoxic Activity (%) ([1]; E/T ratio 2): 9.1%; Cytotoxic Activity (%) ([1]; E/T ratio 6): 52.8%; Cytotoxic Activity (%) ([1]; E/T ratio 17): 74.4%; Cytotoxic Activity (%) [2]: 0%; cytotoxic activity after expansion for 14 days (in words) ([3]; MAGE3-specific CTLs, sample 10 μg/ml during CTL induction and during expansion): specific, high cytotoxic activity; Cytotoxic Activity (%) ([3]; peptide addition +, E/T ratio 2): 50.3%; Cytotoxic Activity (%) ([3]; peptide addition +, E/T ratio 6): 67.7%; Cytotoxic Activity (%) ([3]; peptide addition −, E/T ratio 2): 3.6%; Expansion Ratio ([4]; Example 3-2, sample 10 μg/ml during CTL induction +, during expansion +, addition of EBV-B cells −): × 335; Expansion Ratio ([4]; Example 4-1, sample 10 μg/ml: induction +, expansion +, 14 days): × 493; Expansion Ratio ([4]; Example 4-2, sample 10 μg/ml: induction +, expansion +, 14 days): × 423; Expansion Ratio ([4]; Example 4-2, sample 10 μg/ml: induction +, expansion −, 14 days): × 393; Expansion Ratio [5]: × 217; Cytotoxic Activity (%) E/T Ratio 10 ([6]; peptide addition +): 95.5%; Cytotoxic Activity (%) E/T Ratio 10 ([6]; peptide addition −): 8.1%; cytotoxic activity after expansion according to the REM method (in words) ([6]; sample added at the stage of CTL induction prior to the expansion, EBV-B cells added): maintained at a high level; Expansion Ratio [7]: × 217; Expansion Ratio [8]: × 587; Cytotoxic Activity (%) E/T Ratio 10 ([9]; peptide addition +): 60.0%; Cytotoxic Activity (%) E/T Ratio 10 ([9]; peptide addition −): 2.3%; Cytotoxic Activity (%) ([9]; Example 4-1, expansion +, peptide addition +, E/T ratio 1): 31.1%; Cytotoxic Activity (%) ([9]; Example 4-1, expansion +, peptide addition +, E/T ratio 3): 49.8%; Cytotoxic Activity (%) ([9]; Example 4-1, expansion +, peptide addition +, E/T ratio 10): 90.8%; Cytotoxic Activity (%) ([9]; Example 4-1, expansion +, peptide addition +, E/T ratio 30): 105.6%; Cytotoxic Activity (%) ([9]; Example 4-1, expansion +, peptide addition −, E/T ratio 1): 7.3%; Cytotoxic Activity (%) ([9]; Example 4-1, expansion +, peptide addition −, E/T ratio 3): 8.6%; Cytotoxic Activity (%) ([9]; Example 4-1, expansion +, peptide addition −, E/T ratio 10): 13.1%; Cytotoxic Activity (%) ([9]; Example 4-1, expansion +, peptide addition −, E/T ratio 30): 17.0%; Cytotoxic Activity (%) ([9]; Example 4-2, expansion +, peptide addition +, E/T ratio 1): 7.2%; Cytotoxic Activity (%) ([9]; Example 4-2, expansion +, peptide addition +, E/T ratio 3): 23.3%; Cytotoxic Activity (%) ([9]; Example 4-2, expansion +, peptide addition +, E/T ratio 10): 59.6%; Cytotoxic Activity (%) ([9]; Example 4-2, expansion +, peptide addition +, E/T ratio 30): 85.1%; Cytotoxic Activity (%) ([9]; Example 4-2, expansion +, peptide addition −, E/T ratio 1): 0%; Cytotoxic Activity (%) ([9]; Example 4-2, expansion +, peptide addition −, E/T ratio 3): 0%; Cytotoxic Activity (%) ([9]; Example 4-2, expansion +, peptide addition −, E/T ratio 10): 1.9%; Cytotoxic Activity (%) ([9]; Example 4-2, expansion +, peptide addition −, E/T ratio 30): 14.3%; Cytotoxic Activity (%) ([9]; Example 4-2, expansion −, peptide addition +, E/T ratio 1): 9.9%; Cytotoxic Activity (%) ([9]; Example 4-2, expansion −, peptide addition +, E/T ratio 3): 22.1%; Cytotoxic Activity (%) ([9]; Example 4-2, expansion −, peptide addition +, E/T ratio 10): 47.7%; Cytotoxic Activity (%) ([9]; Example 4-2, expansion −, peptide addition +, E/T ratio 30): 78.0%; Cytotoxic Activity (%) ([9]; Example 4-2, expansion −, peptide addition −, E/T ratio 1): 3.0%; Cytotoxic Activity (%) ([9]; Example 4-2, expansion −, peptide addition −, E/T ratio 3): 1.4%; Cytotoxic Activity (%) ([9]; Example 4-2, expansion −, peptide addition −, E/T ratio 10): 4.7%; Cytotoxic Activity (%) ([9]; Example 4-2, expansion −, peptide addition −, E/T ratio 30): 9.3%; cytotoxic activity after expansion for 14 days (in words) ([9]; sample 10 μg/ml only during CTL induction): specific, high cytotoxic activity; difference in the cytotoxic activity by the presence or absence of the addition during the induction [10]: almost no difference
